The target in one data set is T1, PPARδ (Homo sapiens, UniProt Q03181).
T1 construct: expressed in transfected cells; host or cells: HepG2 (human hepatocarcinoma, ATCC)
T1 sequence (Q03181 1-441): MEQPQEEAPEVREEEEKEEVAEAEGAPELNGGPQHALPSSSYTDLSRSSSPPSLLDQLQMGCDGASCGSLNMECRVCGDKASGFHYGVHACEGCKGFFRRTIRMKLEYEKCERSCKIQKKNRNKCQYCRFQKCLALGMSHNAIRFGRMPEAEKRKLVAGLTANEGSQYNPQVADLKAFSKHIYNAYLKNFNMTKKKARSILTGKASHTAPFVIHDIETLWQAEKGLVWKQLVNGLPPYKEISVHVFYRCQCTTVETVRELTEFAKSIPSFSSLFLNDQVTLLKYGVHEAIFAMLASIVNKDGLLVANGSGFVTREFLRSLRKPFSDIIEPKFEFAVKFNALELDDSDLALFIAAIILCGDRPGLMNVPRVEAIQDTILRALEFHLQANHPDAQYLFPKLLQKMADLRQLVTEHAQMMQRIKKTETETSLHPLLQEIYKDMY
T1 sequence (P19793 1-462 partner): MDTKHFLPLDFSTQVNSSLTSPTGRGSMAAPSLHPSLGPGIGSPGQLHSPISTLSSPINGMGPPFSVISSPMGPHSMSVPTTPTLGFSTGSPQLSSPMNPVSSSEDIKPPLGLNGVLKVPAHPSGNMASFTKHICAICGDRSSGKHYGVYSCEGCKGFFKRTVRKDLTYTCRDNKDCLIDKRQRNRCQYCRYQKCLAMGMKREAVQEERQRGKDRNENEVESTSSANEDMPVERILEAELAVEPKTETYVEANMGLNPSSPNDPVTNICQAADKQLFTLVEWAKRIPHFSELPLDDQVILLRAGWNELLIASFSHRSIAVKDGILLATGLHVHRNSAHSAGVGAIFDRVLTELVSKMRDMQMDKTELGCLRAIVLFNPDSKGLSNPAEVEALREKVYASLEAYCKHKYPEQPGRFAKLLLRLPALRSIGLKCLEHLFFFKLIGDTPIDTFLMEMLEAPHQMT
Briefly: In vitro screening of nuclear receptor agonist: luciferase reporter gene assay in HepG2 cells. The data set is classed as cell-based. The note with it: RXR/PPARδ luciferase reporter gene, 24 h treatment. From the text: Using a reporter gene protocol, the screening model for screening a nuclear receptor agonist in a living cell is designed on a basis of the principal that an activated nuclear receptor can activate transcription of its downstream gene. A reporter gene plasmid is constructed, in which the DNA binding sequence for the nuclear receptor (NRE) is inserted upstream of the luciferase gene, so that the expression of the luciferase gene is placed under the control of the nuclear receptor. Then, the reporter gene plasmid and the nuclear receptor are simultaneously transferred into a cell, and the nuclear receptor is activated when the nuclear receptor agonist is present in the cell culture medium. Then the activated receptor is able to induce the expression of the luciferase gene, while the amount of the luciferase can be determined through its luminous substrate. In this way, the intensity of activation by the compound on the nuclear receptor could be known by observing the luminescence intensity.
The specific operation is described as follows:
The experiment reagents: the compounds to be tested (20 mM, in DMSO, stored at −80° C.).
The hepatocarcinoma cell HepG2 (from ATCC, American Type Culture Collection) was cultured in DMEM medium supplemented with 10% heat-inactivated fetal bovine serum (FBS, Invitogen, Grand Island, N.Y., USA) in a T-75 culture bottle (Greiner, Germany) in a incubator at 37° C., the relative humidity of 100%, and 5% CO2. When the cell culture in the culture bottle reached 80-90% confluency, it was digested with 0.25% Trypsin (with EDTA) for 3 min and inoculated into a 96-well cell culture plate at an inoculating density of 2000 cells/100 μl/well.
In the next day, when the cells in the 96-well culture plate grew up to 50-80% confluency, cell transfection was performed. The cell co-transfection system comprised the FuGene6 transfection agent (Roche Molecular Biochemicals, Indianapolis, Ind., U.S.A.) and 60 ng DNA (long of hRXR, 10 ng of pCMV βGal, 10 ng of the nuclear receptor expression plasmid RXR/PPARδ, 30 ng of GFP fluorescence reporter gene plasmid, respectively).
The cell culture medium was discarded immediately at 24 hours post-transfection and replaced by 200 μl of a fresh DMEM medium containing the medicament to be tested (with 10% FBS treated by activated carbon).
24 h after treatment with the medicament, the cells were lysed with a lysis solution (Cell Culture Lysis buffer, Promega) and centrifuged, and the supernatant was collected. The supernatant was treated with a fluorescence detection kit (Promega) and counted by a fluorescence meter (Ascent Fluoroskan FL reader, Thermo Labsystems, Finland), and the relative intensity of the luciferase was determined. For assaying the β-galactosidase activity used in the experiment as the inner reference (the inner reference calibrating for the transfection efficiency), 50 μl of the supernatant was transferred into a fresh microplate and treated with the Promega kit and read at a wavelength of 405 nm from a microplate reader (Bio-tech Instruments Inc., Winooski, Vt., USA) (Sauerberg, P.; Olsen, G. S.; Jeppesen, L.; Mogensen, J. P. et al., J. Med. Chem., 2007, 50, 1495-1503).
The median effective concentration (EC50) of a sample is a concentration at which the sample has 50% pharmacological effect. This value is one of the important parameters for evaluating pharmacological effects of a compound. In the present screening process, the EC50 of a sample was calculated according to the activation of the receptor by the sample at six different concentrations.
(In general: In a reporter assay the amount or activity of a reporter protein is the signal.)

A short description of data set [1]: Pharmacokinetics: plasma concentration-time curve. The following applies: both sexes, rat, plasma, oral, SD rats, gastric lavage, 50, 10 and 2 mg/kg. The class given is in vivo. As for the experimental part:
The dosing volume was 10 ml/kg, and blood samples of 0.4-0.5 ml were taken from the vena orbitalis posterior of the waken animals at different time points post-gastric lavage and centrifuged at 5000 rpm for 10 min. 200 μL of plasma sample was precisely measured, then supplemented with 200 μL acetonitrile, vortexed to evenness, left stand for 5 min, and centrifuged (14000 rpm, 5 min). The supernatant was collected and then centrifuged again (14000 rpm, 5 min). The resulting supernatant was gathered and subjected to HPLC injection. Time points for blood sampling were respectively: 0, 0.5, 1, 2, 4, 6, 8, 10, 12, 24, 36, 48 and 72 h, and the peak area for each time point was the average of those obtained from 6 rats at the same time point. Plasma concentrations were calculated and the medicament concentration-time curve was plotted.

A further data set is described as follows: Tissue distribution. The data set is classed as in vivo, SD rats. On the procedure: 18 of SD rats were fasting for 16 h with free access for water, assigned them into 3 groups with 6 animals/group with a female-to-male ratio of 1:1; they were dosed with HS060098 (10 mg/kg), then the animals were sacrificed at 1, 10, and 24 h after dosing, and the heart, liver, spleen, lung, kidney in each animal were removed rapidly. The tainted blood on the surface of the organ was washed off immediately with physiological saline. The tissue from the organ was dissected apart, washed thoroughly, blotted off, weighed, supplemented with physiological saline at 400 mg/ml, homogenized in an ice bath for 1 min, and centrifuged at 3750 rpm for 20 min. 400 μl of the supernatant was pipetted precisely, followed by addition of 40 μl of an inner standard (HS060001 used as the inner standard with a molar concentration of 5 mmol/L), diluted with 3 ml of purified water, vortexed to homogeneity, and loaded onto a column (SPE C18 column was firstly washed with 3 ml of purified water, and sequentially with 3 ml of 10% methanol for activation). The column was rinsed with 3 ml of purified water at 1 ml/min, and then eluted with 3 ml of a elutant (methanol: purified water=9:1). The eluate was collected and blow-dried under a nitrogen flow at 45° C. The residue was dissolved in 400 μl of acetonitrile and then a HPLC insert was placed and followed by injection of the sample.

For data set [2] the following is noted: clinical research, Oliver et al. 2001; cited from earlier work.
[3] abbreviates: distribution in organs, SD rats, 10 mg/kg.

Molecules are shown by their SMILES.

For orientation: EC50 means the concentration giving half of the maximal effect. A word on the half-life: it is how long it takes for the measured level to halve. The low end stands for rapid decline, the high end for slow decline. In general, bioavailability refers to the share of a dose that reaches the circulation, judged against a reference dose that is usually intravenous. `Cc1cc(OC(c2ccccc2)c2nn(-c3ccc(C(F)(F)F)cc3)c(=O)n2C)ccc1OCC(=O)O` (stereo not drawn) [Compound A-1, 2-(2-methyl-4-(1-(3-(4-methyl-5-oxo-1-(4-trifluoromethyl-phenyl)-4,5-dihydrogen-1H-1,2,4-triazolyl))-benzyloxy)-phenoxy)-acetic acid] showed an EC50 at PPARδ of 468 nM. The half-life in data set [1] was 26 to 28 h. Besides, the bioavailability in data set [1] (read-out: bioavailability) came to 15%. Further, in “Tissue distribution” (setting [3]), the Heart is 6%, the Kidney was determined as 9%, the Liver worked out at 65% and the Lung turned out to be 11%. The same compound had a Spleen in the data set “Tissue distribution” (setting [3]) of 9%. The tissue distribution result in the data set “Tissue distribution” (in words) is on record as “distribute mainly in liver”.
Turning to `Cc1cc(SC(C)(C)C(=O)O)ccc1OC(c1ccccc1)c1nn(-c2ccc(C(F)(F)F)cc2)c(=O)n1C` (stereo not drawn) [Compound A-15, 2,2-dimethyl-2-(3-methyl-4-(1-(3-(4-methyl-5-oxo-1-(4-trifluoromethyl-phenyl)-4,5-dihydrogen-1H-1,2,4-triazolyl))-benzyloxy)-phenylthio)-acetic acid], on PPARδ, the EC50 was 20 nM.
Compound `Cc1cc(SC(c2ccccc2)c2nn(-c3ccc(C(F)(F)F)cc3)c(=O)n2C)ccc1OC(C)(C)C(=O)O` (stereo not drawn) [Compound A-16, 2,2-dimethyl-2-(2-methyl-4-(1-(3-(4-methyl-5-oxo-1-(4-trifluoromethyl-phenyl)-4,5-dihydrogen-1H-1,2,4-triazolyl))-benzylthio)-phenoxy)-acetic acid] gave an EC50 on PPARδ of 1 nM. This EC50 is about 20-fold lower than that of the compound before.
With `CCCCn1c(C(Oc2ccc(SCC(=O)O)cc2C)c2ccccc2)nn(-c2ccc(C(F)(F)F)cc2)c1=O` (stereo not drawn) [Compound A-17, 2-(3-methyl-4-(1-(3-(4-n-butyl-5-oxo-1-(4-trifluoromethyl-phenyl)-4,5-dihydrogen-1H-1,2,4-triazolyl))-benzyloxy)-phenylthio)-acetic acid], at PPARδ, the EC50 is < 1 nM.
Same read-out and setting: the figure for `CCCCn1c(C(Sc2ccc(OC(C)(C)C(=O)O)c(C)c2)c2ccccc2)nn(-c2ccc(C(F)(F)F)cc2)c1=O` (stereo not drawn) [Compound A-18] is < 1 nM; for `CCCCn1c(C(Sc2cc(C)c(OCC(=O)O)cc2C)c2ccccc2)nn(-c2ccc(C(F)(F)F)cc2)c1=O` (stereo not drawn) [Compound A-19, 2-(2,5-dimethyl-4-(1-(3-(4-n-butyl-5-oxo-1-(4-trifluoromethyl-phenyl)-4,5-dihydrogen-1H-1,2,4-triazolyl))-benzylthio)-phenoxy)-acetic acid] it is < 1 nM.
On to `Cc1cc(SCc2sc(-c3ccc(C(F)(F)F)cc3)nc2C)ccc1OCC(=O)O` [GW501516], for which, in data set [2], the “decrease the level of insulin” value is recorded as “up to 48%”, the “decrease the level of triglyceride (TG)” value is on record as “up to 56%”, the “increase the level of high density lipoprotein (HDL) cholesterol” value is given as “up to 80%” and the “lower the level of low density lipoprotein (LDL) cholesterol” value is given as “up to 29%”.
